In US20040171795A1, “Novel peptides” (priority 2000, published 2004):

Key:
[1] = system: cell (Vero, T24 or A549 of Example 9; not given); test: Nucleic acid-introducing ability, luciferase-expressing plasmid (procedure of Example 9); type: cell-based; conditions: for Nucleic acid-introducing ability: class of fluorescent count per 1 mg of protein per 1 second, highest of peptide 1.25, 2.5, 5 μM, plasmid 1 μg/mL; for ability of introducing the nucleic acid into a cell: procedure of Example 9, luciferase-expressing plasmid
Source text: A cell line established from monkey kidney (Vero cell) and a human bladder cancer cell (T24 cell) purchased from American Type Culture Collection (ATCC) and human lung cancer cell (A549 cell) purchased from Dainippon Pharmaceutical were inoculated on a 24 well culture plate (manufactured by NALGEN NUNC) at 1×10^5 cells/well. Vero cell and A549 cell were cultivated in DMEM (manufactured by Life Technologies Oriental) supplemented with 10% fetal bovine serum (hereinafter referred to as FBS, manufactured by NICHIREI), and T24 cell was cultivated in McCoy's 5a (manufactured by Life Technologies Oriental) supplemented with 10% FBS in 5% CO2 atmosphere at 37° C. for 24 hours. After removing the medium, opti-MEM (manufactured by Life Technologies Oriental) prepared to have the concentration of the luciferase-expressing plasmid prepared in Example 7 of 1 μg/mL and the concentration of the peptide prepared in Example 1 of 1.25, 2.5, or 5 μM was added, and the cells were cultivated for 5 hours. Next, in the case of Vero cell and A549 cell, the culture medium was replaced with DMEM supplemented with 10% FBS, and in the case of T24 cell, the medium was replaced with McCoy's 5a supplemented with 10% FBS, and cultivation was continued in 5% CO2 atmosphere and at 37° C. for another 24 hours. The luciferase activity expressed in the cell was then measured by the method instructed in luciferase assay system (manufactured by Promega). To be more specific, the cells were washed with phosphate-buffered saline (hereinafter referred to as PBS, manufactured by SIGMA), and the cells were lyzed with Passive Lysis Buffer attached to the kit. 20 μL of this cell lysate and 100 μL of the Luciferase Assay Reagent II attached to the kit was added to a fluorescence-measuring plate (Microlite™ 1 plate, manufactured by Dynatech), and after mixing, fluorescence was measured for 1 second by using a multilabel counter (ARVO™ SY1420 MULTILABEL COUNTER, manufactured by Wallac Beltold.
Concentration of the protein in the cell lysate was measured by mixing 8 μL of the cell lysate and 200 μL of the protein assay solution (manufactured by Biorad) with 792 μL of ultrapure water in a disposable cuvette (UV fluorescent cuvette A204X, manufactured by Funakoshi), allowing the mixture to stand for 5 minutes at room temperature, and measuring the absorption at 595 nm with a spectrophotometer (DU640, manufactured by Beckman). Bovine serum albumin (BSA) was used for the standard protein. By using the thus obtained results, count per 1 second per 1 mg of protein of the cell lysate was calculated to thereby use the count as the luciferase activity, and the highest count in the three conditions of different peptide concentration was designated the gene-introducing ability of the peptide.
It is to be noted that the nucleic acid-introducing ability was classified as described below on the bases of the fluorescent count per 1 mg of protein per 1 second (cps/mg protein).

[2] = Measurement of turbidity in BSA; type: physicochemical; conditions: BSA 1%, peptide 50 μM, absorbance at 600 nm
Description: The solutions were evaluated for their absorbance at a wavelength of 600 nm by using a spectrophotometer (DU640, manufactured by Beckman).

[3] = Affinity for phosphatidyl serine (EIA, inhibition of human Factor VIII binding); conditions: for IC50: class of IC50 for inhibiting human Factor VIII binding, 5% BSA
Description: The specific affinity of the peptide for phosphatidyl serine was evaluated by measuring activity of the peptide for inhibiting the binding of the human Factor VIII to phosphatidyl serine by using human Factor VIII which is known to bind to phosphatidyl serine but not to phosphatidyl choline in the presence of serum albumin. To be more specific, 100 μL of ethanol solution containing 10 μg/mL of phospholipids at a phosphatidyl serine (manufactured by SIGMA): phosphatidyl choline (manufactured by SIGMA) ratio of 3:7 was added to the wells of a 96 well plate (Immulon I, manufactured by Dynatech), and exsiccated by using a centrifugal evaporator (EC-95C, manufactured by Sakuma Seisakusho) at 40° C. for 40 minutes. 200 μL each of TBS (10 mM Tris-HCl (pH 7.4) containing 1% bovine serum albumin (BSA Fraction V, hereinafter referred to as BSA, manufactured by Seikagaku Corporation) and 0.9% (W/V) NaCl solution were added to each well, and the wells were blocked by allowing the plate to stand at 37° C. for 2.5 hours. After washing the plate with water, 100 μL of TBS solution supplemented with 5% BSA mixed with human Factor VIII (manufactured by American Diagnostica) at a final concentration 1 μg/mL and the peptide of predetermined dose prepared in Example 1 was added to each well, and the reaction was allowed to take place at 4° C. for 24 hours.
After the completion of the reaction, the human Factor VIII that became bound to the phosphatidyl serine was measured by enzyme immunoassay (EIA) in accordance with the general procedure described in a book (“Enzyme Immunoassay (3rd ed.)”, Eiji Ishikawa et al., Igaku-Shoin, 1987). To be more specific, the measurement was conducted by using anti-human Factor VIII mouse monoclonal antibody (ESH8, manufactured by American Diagnostica) for the primary antibody, horseradish peroxidase-labeled anti-mouse IgG antibody (P0260, manufactured by Daco) for the secondary antibody, and tetramethylbenzidine for the chromogenic substrate, and measuring the absorption at a wavelength of 450 nm by using a reference wavelength of 630 nm on a spectrophotometer (NJ-2100, manufactured by Intermed).
Intensity of the affinity of the peptide for the phosphatidyl serine was evaluated by using the value obtained by subtracting the absorption of the well having no human Factor VIII added thereto from the absorption of the well having only the human Factor VIII added thereto as the control value (100%), and designating the peptide concentration at which the value 0.5 was obtained when the value obtained by subtracting the absorption of the well having only the peptide added thereto from the absorption of the well having a mixture of the human Factor VIII and the peptide added thereto were divided by the control value as the IC50 value, and evaluating the intensity to be ++ when the IC50 value was up to 1 μM, and +when the intensity was more than 1 μM but not more than 10 μM. It is to be noted that the specific affinity was evaluated to be none when the intensity was 10 μM or more.

| Substance | Nucleic acid-introducing ability [1] | OD 600 [2] | IC50 [3] [nM] | also measured |
| --- | --- | --- | --- | --- |
| SEQ ID NO: 20: peptide of SEQ ID NO:1 with three locations substituted in the 18 amino acid sequence (TRYLRLHPRSWVHQLALRTRYLRLHPRSWVHQLALRS; synthetic peptide using an automatic peptide synthesizer) | 4+ (10,000,000 or more) |  |  |  |
| SEQ ID NO: 9: peptide of SEQ ID NO:1 with one or two locations substituted in the 18 amino acid sequence (TRYLRIHPRSWVHQIALRTRYLRIHPRSWVHQIALRS; synthetic peptide using an automatic peptide synthesizer) | 3+ (1,000,000 to less than 10,000,000) |  |  |  |
| SEQ ID NO: 10: peptide of SEQ ID NO:1 with one or two locations substituted in the 18 amino acid sequence (TRSLRIHPRSWVHQIALRLRSLRIHPRSWVHQIALRS; synthetic peptide using an automatic peptide synthesizer) | 3+ (1,000,000 to less than 10,000,000) | 0.01> | 1000 to 10000 |  |
| SEQ ID NO: 21: peptide of SEQ ID NO:1 with three locations substituted in the 18 amino acid sequence (TKYLKIHPKSWVHQIALRLKYLKIHPKSWVHQIALRS; synthetic peptide using an automatic peptide synthesizer) | 2+ (100,000 to less than 1,000,000) |  |  |  |
| SEQ ID NO: 13: peptide of SEQ ID NO:1 with one or two locations substituted in the 18 amino acid sequence (TRYLRIHPRSLVHQIALRLRYLRIHPRSLVHQIALRS; synthetic peptide using an automatic peptide synthesizer) | 3+ (1,000,000 to less than 10,000,000) |  |  |  |
| SEQ ID NO: 6: peptide of SEQ ID NO:1 with one or two locations substituted in the 18 amino acid sequence (TRYLRIHPRSWVHNIALRLRYLRIHPRSWVHNIALRS; synthetic peptide using an automatic peptide synthesizer) | 2+ (100,000 to less than 1,000,000) | 0.01> | < 1000 |  |
| SEQ ID NO: 11: peptide of SEQ ID NO:1 with one or two locations substituted in the 18 amino acid sequence (TRYLRIHPRLWVHQIALRLRYLRIHPRLWVHQIALRS; synthetic peptide using an automatic peptide synthesizer) | 3+ (1,000,000 to less than 10,000,000) | 0.01> | 1000 to 10000 |  |
| SEQ ID NO: 18: peptide of SEQ ID NO:1 with one or two locations substituted in the 18 amino acid sequence (TRYLRIHPRSWLHQIALRTRYLRIHPRSWLHQIALRS; synthetic peptide using an automatic peptide synthesizer) | 4+ (10,000,000 or more) |  |  |  |
| SEQ ID NO: 12: peptide of SEQ ID NO:1 with one or two locations substituted in the 18 amino acid sequence (TRYLRIHPRSWVHQIALSLRYLRIHPRSWVHQIALSS; synthetic peptide using an automatic peptide synthesizer) | 2+ (100,000 to less than 1,000,000) |  |  |  |
| SEQ ID NO: 19: peptide of SEQ ID NO:1 with three locations substituted in the 18 amino acid sequence; preferred peptide (TRYLRLHPRSWLHQLALRLRYLRLHPRSWLHQLALRS; synthetic peptide using an automatic peptide synthesizer) | 4+ (10,000,000 or more) | 0.01> | < 1000 |  |
| SEQ ID NO: 7: peptide of SEQ ID NO:1 with one or two locations substituted in the 18 amino acid sequence (TRYLRIHPRSWVHQIALKLKYLRIHPRSWVHQIALRS; synthetic peptide using an automatic peptide synthesizer) | 2+ (100,000 to less than 1,000,000) | 0.01> | 1000 to 10000 |  |
| SEQ ID NO:26: comparative peptide, SEQ ID NO:1 substituted so that it lacks the four sided 18 amino acid sequence (TRYLRIHPRSWVLQIALRLRYLRIHPRSWVLQIALRS; synthetic peptide using an automatic peptide synthesizer) [reference compound] |  |  |  | fluorescent count ([1]; procedure of Example 9): less than 10,000 cps/mg protein; ability of introducing the nucleic acid into a cell [1]: no nucleic acid-introducing ability was found |
| Polylysine [reference compound] |  | ≥ 1 |  | affinity for phosphatidyl serine ([3]; procedure of Example 20): no affinity for phosphatidyl serine |
| SEQ ID NO: 24: deletion mutant of the peptide of SEQ ID NO:4 (TLRYLRIHPRSWLHQIALRS; synthetic peptide using an automatic peptide synthesizer) | 1+ (10,000 to less than 100,000) |  |  | ability of introducing the nucleic acid into a cell [1]: had the ability of introducing the nucleic acid into a cell |
| SEQ ID NO: 22: peptide of SEQ ID NO:1 with three locations substituted in the 18 amino acid sequence (TRRLRIHPRRWVHRIALRLRRLRIHPRRWVHRIALRS; synthetic peptide using an automatic peptide synthesizer) | 3+ (1,000,000 to less than 10,000,000) |  |  |  |
| SEQ ID NO: 14: peptide of SEQ ID NO:1 with one or two locations substituted in the 18 amino acid sequence (TRYLRIHPRSWSHQIALRLRYLRIHPRSWSHQIALRS; synthetic peptide using an automatic peptide synthesizer) | 3+ (1,000,000 to less than 10,000,000) |  |  |  |
